Tests used:
SGLT2 = molecular target: T1, SGLT2 (Homo sapiens, UniProt P31639); test: 14C-AMG uptake in BHK cells transfected with SGLT2; type: cell-based; settings: 2 mM AMG, 37° C., 90 min
T1 construct: expressed in transfected cells
T1 sequence (P31639 1-672): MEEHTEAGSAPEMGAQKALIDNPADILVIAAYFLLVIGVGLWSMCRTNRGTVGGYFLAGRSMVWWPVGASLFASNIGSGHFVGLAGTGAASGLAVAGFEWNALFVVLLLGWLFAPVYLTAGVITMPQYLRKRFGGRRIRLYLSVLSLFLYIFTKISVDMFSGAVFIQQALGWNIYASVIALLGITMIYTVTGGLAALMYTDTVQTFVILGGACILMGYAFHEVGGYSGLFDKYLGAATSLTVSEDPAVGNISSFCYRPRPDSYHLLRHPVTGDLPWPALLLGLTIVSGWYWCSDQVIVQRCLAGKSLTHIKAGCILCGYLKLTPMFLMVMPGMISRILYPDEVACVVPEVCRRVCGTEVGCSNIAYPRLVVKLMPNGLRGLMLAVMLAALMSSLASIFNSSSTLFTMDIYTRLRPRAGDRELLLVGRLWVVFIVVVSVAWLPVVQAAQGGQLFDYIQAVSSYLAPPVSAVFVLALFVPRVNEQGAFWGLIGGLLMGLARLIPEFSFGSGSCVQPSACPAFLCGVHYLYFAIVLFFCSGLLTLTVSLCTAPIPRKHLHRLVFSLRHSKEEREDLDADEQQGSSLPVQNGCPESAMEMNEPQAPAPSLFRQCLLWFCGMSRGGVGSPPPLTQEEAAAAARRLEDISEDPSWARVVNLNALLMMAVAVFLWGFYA
Excerpt: (§1) The compounds can be tested for their SGLT inhibition properties by means of BHK cells expressing SGLT1 and SGLT2. The production of the cells and the testing can be carried out as described below.
Construction and Expression of SGLT2 in BHK Cells
To construct the SGLT2 expression vector (KL224), the SLC5A2 gene (homologous to NM_003041) was amplified from a cDNA library using standard PCR technology and cloned over NheI/XhoI sites into PCI-neo expression vector (Promega) containing neomycin as a selection marker. In this vector, transcription uses the enhancer/promoter of human cytomegalovirus and the SV40 polyadenylation signal.
(§2) The final vector KL224 together with an additional vector containing a dihydrofolate reductase gene as a selection marker was introduced into cells. Transfection into BHK21 cells (ATCC CCL-10), cultivated in DMEM medium (GIBCO/BRL), supplemented with 10% foetal calf serum (FCS) and 20 mM glutamine, was carried out using calcium phosphate transfections according to Graham, F. L. and van der Ebb, A. J. (1973), Virology 52: 456 with 5-20 μg of uncut plasmids for 10^7 cells. Stable transfectants were selected in medium containing 1 mg/ml of G418 (GIBCO/BRL) and 20-5000 nM methotrexate as final concentration, where only cells which expressed the neomycin gene and overexpressed the dhfr gene were able to grow. After growth for 2-3 weeks, the cells were cloned (0.5 cells/well) and the clones were investigated for SGLT expression in radioactivity uptake tests.
(§3) Method of SGLT1/2 Activity Measurement
(§4) The uptake of ^14C-α-methyl-D-glucopyranoside (AMG) in, for example, Xenopus oocytes injected with the corresponding cRNA has been described in principle (for example Wen-Sen Lee et al. (1994), J. Biol. Chem. 269, 12032-12039; Guofeng You et al. (1995), J. Biol. Chem. 270, 29365-29371).
(§5) A 96-well cell-based assay was developed and adapted to HTS requirements:
(§6) BHK cells (transfected with SGLT1 or SGLT2) were seeded into 96-well microtitre plates (Cultureplates, Perkin Elmer). After at least 24 h, medium was removed, and the cell layer was washed with assay buffer (140 mM NaCl, 2 mM KCl, 1 mM CaCl2, 1 mM MgCl2, 10 mM HEPES, 5 mM Tris, adjusted to pH 7.4 using 1 M KOH). After addition of 40 μl of assay buffer, 50 μl of AMG (50 μM for SGLT1 and 2 mM for SGLT2) in the presence or absence of compounds, the cells were incubated in a total volume of 100 μl at 37° C. for 90 min. Supernatant was removed by suction and discarded. Cells were washed and lysed by addition of 50 μl of water. After 10 min at room temperature, 200 μl of Micrsoscint 40 (Perkin Elmer) were added. The radioactivity was counted in a Topcount microplate scintillation counter (Perkin Elmer). The non-specific uptake was determined in sodium-free assay buffer (266 mM sucrose, 2 mM KCl, 1 mM CaCl2, 1 mM MgCl2, 10 mM HEPES, 5 mM Tris, adjusted to pH 7.4 using 1 M KOH).

SGLT1 = molecular target: T2, SGLT1 (Homo sapiens, UniProt P13866); test: 14C-AMG uptake in BHK cells transfected with SGLT1; type: cell-based; settings: 50 μM AMG, 37° C., 90 min
T2 construct: expressed in transfected cells
T2 sequence (P13866 1-664): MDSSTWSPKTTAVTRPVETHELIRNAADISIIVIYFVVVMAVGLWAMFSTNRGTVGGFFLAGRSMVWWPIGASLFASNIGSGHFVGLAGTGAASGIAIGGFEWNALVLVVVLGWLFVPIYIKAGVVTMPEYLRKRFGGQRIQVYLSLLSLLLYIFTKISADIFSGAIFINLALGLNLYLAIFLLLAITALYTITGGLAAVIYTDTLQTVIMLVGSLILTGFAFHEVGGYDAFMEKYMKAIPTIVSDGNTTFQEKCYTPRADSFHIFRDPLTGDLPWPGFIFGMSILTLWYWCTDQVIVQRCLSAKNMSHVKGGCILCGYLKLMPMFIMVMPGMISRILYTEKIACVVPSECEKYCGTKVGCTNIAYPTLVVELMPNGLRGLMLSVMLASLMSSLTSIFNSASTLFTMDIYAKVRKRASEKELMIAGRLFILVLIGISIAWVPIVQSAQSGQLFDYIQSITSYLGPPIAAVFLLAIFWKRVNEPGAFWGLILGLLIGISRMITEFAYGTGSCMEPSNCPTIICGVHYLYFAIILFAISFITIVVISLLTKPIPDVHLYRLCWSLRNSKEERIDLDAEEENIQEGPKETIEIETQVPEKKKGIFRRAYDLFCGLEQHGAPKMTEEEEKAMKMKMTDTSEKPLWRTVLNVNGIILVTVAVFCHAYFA
Excerpt: as §1
Construction and Expression of SGLT1 in BHK Cells
To construct the SGLT1 expression vector (KL225), the SLC5A1 gene (homologous to NM_000343) was amplified from a cDNA library using standard PCR technology and cloned over NheI/XhoI sites into the pcDNA3.1 expression vector (Invitrogen) containing neomycin as a selection marker. In this vector, transcription uses the enhancer/promoter of human cytomegalovirus.
as §2, with “KL225” for “KL224”
as §3, §4, §5, §6

COc1ccc(C2COc3ccc([C@@H]4O[C@H](CO)[C@@H](O)[C@H](O)[C@H]4O)cc32)cc1 (stereo partly drawn) [Compound A9, 5-(β-D-Glucopyranos-1-yl)-3-(4-methoxyphenyl)-2,3-dihydrobenzofuran]
IC50 (SGLT2): 0.01 to 1 µM | IC50 (SGLT1): > 10 µM

6-(β-D-glucopyranos-1-yl)-3R-(4-methoxyphenyl)indane [Compound A14]
IC50 (SGLT2): > 10 µM | IC50 (SGLT1): > 10 µM

COc1ccc([C@@H]2COc3ccc([C@@H]4O[C@H](CO)[C@@H](O)[C@H](O)[C@H]4O)cc32)cc1 [Compound A13]
IC50 (SGLT2): 0.01 to 1 µM | IC50 (SGLT1): > 10 µM

5-(β-D-glucopyranos-1-yl)-2-(4-methoxyphenyl)benzofuran [Compound A8]
IC50 (SGLT2): > 10 µM | IC50 (SGLT1): > 10 µM

COc1ccc([C@@H]2CCc3ccc([C@@H]4O[C@H](CO)[C@@H](O)[C@H](O)[C@H]4O)cc32)cc1 [Compound A2, 6-(β-D-glucopyranos-1-yl)-1S-(4-methoxyphenyl)indane]
IC50 (SGLT2): 0.01 to 1 µM | IC50 (SGLT1): > 10 µM

COc1ccc(C2CCc3ccc([C@@H]4O[C@H](CO)[C@@H](O)[C@H](O)[C@H]4O)cc32)cc1 (stereo partly drawn) [Compound A1, 6-(β-D-glucopyranos-1-yl)-1-(4-methoxyphenyl)indane]
IC50 (SGLT2): 0.01 to 1 µM | IC50 (SGLT1): > 10 µM

COc1ccc(C2=CCCc3ccc([C@]4(OC)O[C@H](CO)[C@@H](O)[C@H](O)[C@H]4O)cc32)cc1 [Compound A6, 7-(1-Methoxy-D-glucopyranos-1-yl)-1-(4-methoxyphenyl)-3,4-dihydronaphthalene]
IC50 (SGLT2): > 10 µM | IC50 (SGLT1): > 10 µM

CCOc1ccc(-n2ccc3ccc([C@@H]4O[C@H](CO)[C@@H](O)[C@H](O)[C@H]4O)cc32)cc1 [Compound A12, 6-(β-D-Glucopyranos-1-yl)-1-(4-ethoxyphenyl)indole]
IC50 (SGLT2): > 10 µM | IC50 (SGLT1): > 10 µM

COc1ccc(C2CCCc3ccc([C@@H]4O[C@H](CO)[C@@H](O)[C@H](O)[C@H]4O)cc32)cc1 (stereo partly drawn) [Compound A5, 7-(β-D-Glucopyranos-1-yl)-1-(4-methoxyphenyl)-1,2,3,4-tetrahydro-naphthalene]
IC50 (SGLT2): 0.01 to 1 µM | IC50 (SGLT1): > 10 µM

CCOc1ccc(C2CCc3ccc([C@@H]4O[C@H](CO)[C@@H](O)[C@H](O)[C@H]4O)cc32)cc1 (stereo partly drawn) [Compound A4, 6-(β-D-Glucopyranos-1-yl)-1-(4-ethoxyphenyl)indane]
IC50 (SGLT2): 0.01 to 1 µM | IC50 (SGLT1): > 10 µM

5-(β-D-Glucopyranos-1-yl)-3-(4-methoxyphenyl)benzofuran [Compound A7]
IC50 (SGLT2): 1 to 10 µM | IC50 (SGLT1): > 10 µM

6-(β-D-glucopyranos-1-yl)-1R-(4-methoxyphenyl)indane [Compound A3]
IC50 (SGLT2): > 10 µM | IC50 (SGLT1): > 10 µM
